Test systems include UACC-257 melanoma; NCI-H23 lung; SK-MEL-2 melanoma; NCI/ADR-RES ovarian; HS 578T breast; MCF7 breast; OVCAR-8 ovarian; HOP-92 NSCLC; HOP-62 NSCLC; LOX IMVI melanoma; KM12 colon.
What all share (experiment): DTP human tumour cell line panel, 48 h

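Protocol summary: plate cells (96-well), add compound at 5 concentrations, incubate 48 h, interpolate endpoints linearly. TGI denotes the concentration required for complete inhibition of growth.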 Bounds are passed on as bounds.

As for `CCC(=O)Nc1ccc(N2C(=O)/C(=C/c3ccc(O)c(OC)c3)N=C2c2ccccc2)cc1`, the TGI in the assay on UACC-257 melanoma is 71.5 µM; with NCI-H23 lung it was over 100 µM; in the assay with SK-MEL-2 melanoma, 93.5 µM; in the assay with NCI/ADR-RES ovarian, over 100 µM; with HS 578T breast, over 100 µM; in the assay with MCF7 breast it was over 100 µM. Besides, the TGI in the assay with OVCAR-8 ovarian, with HOP-92 NSCLC, with HOP-62 NSCLC, in the assay on LOX IMVI melanoma and in the assay with KM12 colon was over 100 µM each time.
For the molecule `C=C1CC(Cn2cc(Br)c(=O)[nH]c2=O)(c2ccc(Br)cc2)OC1=O` (configuration not stated), the TGI in the assay on UACC-257 melanoma was 4.11 µM; in the assay with NCI-H23 lung, 10.6 µM; with SK-MEL-2 melanoma, 3.74 µM; in the assay on NCI/ADR-RES ovarian, 15.9 µM; in the assay on HS 578T breast, over 32.4 µM; in the assay on MCF7 breast it was 14.4 µM. Moreover, the TGI with OVCAR-8 ovarian is over 100 µM; in the assay with HOP-92 NSCLC, 2.96 µM; in the assay on HOP-62 NSCLC it was 31 µM; with LOX IMVI melanoma, 3.64 µM; with KM12 colon it was over 38.7 µM.
For `O=P1(N(CCCl)CCCl)NCCCO1` (configuration not stated), the TGI in the assay with UACC-257 melanoma is over 250 µM; in the assay on NCI-H23 lung, over 250 µM; with SK-MEL-2 melanoma, over 238 µM; in the assay with NCI/ADR-RES ovarian, over 250 µM; in the assay with HS 578T breast, over 250 µM; in the assay on MCF7 breast it was over 250 µM. Also, the TGI is over 238 µM in the assay with OVCAR-8 ovarian; over 250 µM in the assay with HOP-92 NSCLC; over 250 µM with HOP-62 NSCLC; over 250 µM with LOX IMVI melanoma; over 238 µM in the assay on KM12 colon.
With `CC(=O)Nc1nc(C)c(S(=O)(=O)NC(=O)N2c3ccccc3CCc3ccccc32)s1`, the TGI in the assay with UACC-257 melanoma, in the assay on NCI-H23 lung, with SK-MEL-2 melanoma, in the assay with NCI/ADR-RES ovarian, in the assay with HS 578T breast and with MCF7 breast was over 100 µM each time. The TGI in the assay with OVCAR-8 ovarian, in the assay with HOP-92 NSCLC, in the assay with HOP-62 NSCLC, in the assay with LOX IMVI melanoma and in the assay with KM12 colon was over 100 µM each time.
Regarding `O=C1/C(=C/c2cccs2)N=C(c2ccccc2)N1c1nc2ccccc2s1`, the TGI in the assay with UACC-257 melanoma is over 100 µM; with NCI-H23 lung it was over 100 µM; in the assay on SK-MEL-2 melanoma, over 100 µM; with NCI/ADR-RES ovarian it was over 100 µM; in the assay on HS 578T breast, 38.9 µM; with MCF7 breast, over 100 µM. In addition, the TGI in the assay with OVCAR-8 ovarian, in the assay with HOP-92 NSCLC, in the assay on HOP-62 NSCLC, in the assay with LOX IMVI melanoma and in the assay on KM12 colon was over 100 µM throughout.
As for `O=C1Sc2cc3ccccc3cc2C(=O)Sc2cc3ccccc3cc21`, the TGI in the assay on UACC-257 melanoma is over 78.7 µM; with NCI-H23 lung it was over 100 µM; in the assay on SK-MEL-2 melanoma, over 66.5 µM; with NCI/ADR-RES ovarian it was over 92.3 µM; in the assay with HS 578T breast, over 100 µM; in the assay on MCF7 breast it was over 100 µM. Further, the TGI with OVCAR-8 ovarian was over 89.2 µM; in the assay on HOP-92 NSCLC, over 87.6 µM; with HOP-62 NSCLC, over 85.2 µM; with LOX IMVI melanoma, 48.1 µM; with KM12 colon, over 100 µM.
As for `CCOC(=O)c1nc2ccccc2nc1Nc1ccc(F)cc1`, the TGI with UACC-257 melanoma is over 100 µM; in the assay with NCI-H23 lung, 69.1 µM; in the assay with SK-MEL-2 melanoma it was over 83.4 µM; in the assay with NCI/ADR-RES ovarian, over 100 µM; with HS 578T breast, over 84.8 µM; with MCF7 breast, over 100 µM. Further, the TGI in the assay with OVCAR-8 ovarian is 32 µM; with HOP-92 NSCLC, 43.9 µM; with HOP-62 NSCLC, 38.2 µM; with LOX IMVI melanoma, over 100 µM; with KM12 colon, over 100 µM.
As for `CC1Cc2c(cc(N)nc2Br)NC1=O` (configuration not stated), the TGI in the assay with UACC-257 melanoma, with NCI-H23 lung, in the assay with SK-MEL-2 melanoma, in the assay on NCI/ADR-RES ovarian, with HS 578T breast and with MCF7 breast was over 100 µM each time. The TGI in the assay with OVCAR-8 ovarian, with HOP-92 NSCLC, in the assay on HOP-62 NSCLC, in the assay on LOX IMVI melanoma and in the assay with KM12 colon was over 100 µM throughout.
With `c1cc2c3c(c1)[C@@H]1O[C@@H]1c1cccc(c1-3)[C@@H]1O[C@H]21`, the TGI with UACC-257 melanoma is 48.4 µM; in the assay on NCI-H23 lung it was 33.1 µM; with SK-MEL-2 melanoma it was 42.5 µM; in the assay with NCI/ADR-RES ovarian, 61.6 µM; in the assay on HS 578T breast it was 40 µM; in the assay with MCF7 breast, over 100 µM. The TGI in the assay with OVCAR-8 ovarian was 46.2 µM; with HOP-92 NSCLC it was 50.2 µM; with HOP-62 NSCLC, over 100 µM; in the assay on LOX IMVI melanoma, 10.7 µM; in the assay on KM12 colon it was 44 µM.
Take `COc1ccc(OC)c(-c2cn3c(n2)sc2ccccc23)c1`: the TGI in the assay on UACC-257 melanoma, in the assay on NCI-H23 lung, in the assay on SK-MEL-2 melanoma, with NCI/ADR-RES ovarian, in the assay on HS 578T breast and with MCF7 breast was over 100 µM each time. Also, the TGI in the assay with OVCAR-8 ovarian, with HOP-92 NSCLC, with HOP-62 NSCLC, in the assay on LOX IMVI melanoma and in the assay with KM12 colon was over 100 µM each time.
Turning to `CCOC(=O)COC1=Nc2cc(OC)c(OC)c3nc(Cl)cc(c23)C1=O`, the TGI with UACC-257 melanoma is 3.21 µM; in the assay with NCI-H23 lung it was 5.3 µM; in the assay on SK-MEL-2 melanoma, 4.09 µM; in the assay on NCI/ADR-RES ovarian, over 31.4 µM; in the assay with HS 578T breast, over 20.6 µM; with MCF7 breast, 3.46 µM. In addition, the TGI in the assay on OVCAR-8 ovarian was found to be 9.8 µM; in the assay with HOP-92 NSCLC, 3.22 µM; with HOP-62 NSCLC it was 7.97 µM; in the assay on LOX IMVI melanoma, 4.23 µM; in the assay on KM12 colon it was 28.6 µM.
For the molecule `O=C1/C(=C(/Br)I)c2ccccc2-c2ccccc21`, the TGI with UACC-257 melanoma is 18.5 µM; in the assay with NCI-H23 lung, 46.4 µM; in the assay with SK-MEL-2 melanoma, 31.5 µM; in the assay with NCI/ADR-RES ovarian it was 30.4 µM; in the assay on HS 578T breast it was over 100 µM; in the assay on MCF7 breast, 32.9 µM. Also, the TGI with OVCAR-8 ovarian is 31.5 µM; in the assay with HOP-92 NSCLC, 8.07 µM; in the assay with HOP-62 NSCLC, 36.6 µM; with LOX IMVI melanoma it was 12.2 µM; in the assay with KM12 colon, 32 µM.

For the origin of these results see PubChem BioAssay (NCI).
